Assay: refractive index (Na D-line) (dimensionless); xn = mol fraction of the nth substance listed
Conditions: 101 kPa, Liquid, Standard Abbe refractometry

CCCCOC(C)=O [butyl ethanoate] + Cc1ccccc1
refractive index
Conditions	293.15 K	298.15 K	303.15 K	308.15 K	313.15 K
x1 = 0.0499	1.49044	1.48757	1.48472	1.4818	1.47891
x1 = 0.0998	1.48428	1.48149	1.47861	1.47573	1.47285
x1 = 0.15	1.47815	1.47538	1.47251	1.46966	1.46684
x1 = 0.2001	1.47222	1.46948	1.46668	1.46382	1.46101
x1 = 0.2502	1.46644	1.46358	1.46079	1.45814	1.45535
x1 = 0.2985	1.461	1.45826	1.45547	1.45277	1.4501
x1 = 0.3447	1.4559	1.45318	1.45041	1.44769	1.44494
x1 = 0.4011	1.4498	1.44705	1.4443	1.44161	1.4389
x1 = 0.4468	1.44504	1.44235	1.4397	1.43691	1.43423
x1 = 0.4994	1.43964	1.43696	1.4343	1.43157	1.42895
x1 = 0.5524	1.4343	1.43166	1.42902	1.42632	1.42368
x1 = 0.5999	1.42964	1.42695	1.42432	1.42164	1.41904
x1 = 0.6517	1.42468	1.42207	1.41943	1.41676	1.41415
x1 = 0.7	1.42017	1.41756	1.41498	1.41233	1.40974
x1 = 0.7516	1.41545	1.41287	1.41026	1.40773	1.40511
x1 = 0.7972	1.41141	1.40888	1.40629	1.40371	1.4012
x1 = 0.8404	1.4076	1.40508	1.4025	1.39992	1.39741
x1 = 0.8971	1.40273	1.40025	1.39777	1.39518	1.39265
x1 = 0.9449	1.39881	1.3963	1.39384	1.39133	1.38884

CCCCc1ccccc1 [butylbenzene] + CCCCOC(C)=O
refractive index
Conditions	293.15 K	298.15 K	303.15 K	308.15 K	313.15 K
x2 = 0.049	1.48578	1.48339	1.48091	1.47847	1.47595
x2 = 0.1016	1.48141	1.47885	1.47649	1.47387	1.47154
x2 = 0.1545	1.47686	1.47443	1.47201	1.46946	1.46708
x2 = 0.1989	1.47295	1.47054	1.46814	1.46556	1.46318
x2 = 0.2515	1.46838	1.46596	1.46358	1.461	1.45858
x2 = 0.3023	1.46389	1.46143	1.45905	1.45651	1.45403
x2 = 0.3501	1.45956	1.45713	1.4547	1.45232	1.44977
x2 = 0.3997	1.45505	1.45258	1.45018	1.44769	1.44526
x2 = 0.45	1.45031	1.44787	1.44547	1.44298	1.44055
x2 = 0.4993	1.44563	1.44318	1.44078	1.43832	1.43589
x2 = 0.5496	1.44082	1.43837	1.43591	1.43351	1.43104
x2 = 0.6004	1.43586	1.43342	1.43102	1.42848	1.42602
x2 = 0.6499	1.43099	1.42852	1.42607	1.42354	1.42107
x2 = 0.6998	1.42593	1.42345	1.42099	1.41852	1.41609
x2 = 0.7517	1.4207	1.41819	1.41576	1.41331	1.41084
x2 = 0.801	1.41551	1.41312	1.4106	1.40817	1.40574
x2 = 0.8489	1.41049	1.40806	1.40567	1.40319	1.40078
x2 = 0.8999	1.40499	1.40257	1.40021	1.39782	1.39529
x2 = 0.9493	1.39969	1.39734	1.39484	1.39244	1.39

CC(C)c1ccccc1 [isopropylbenzene] + CCCCOC(C)=O
refractive index
Conditions	293.15 K	298.15 K	303.15 K	308.15 K	313.15 K
x2 = 0.0521	1.48648	1.48385	1.48124	1.47872	1.47599
x2 = 0.0998	1.48203	1.47941	1.47677	1.47424	1.47156
x2 = 0.151	1.47724	1.47459	1.47198	1.46948	1.4668
x2 = 0.2043	1.47219	1.46954	1.46694	1.46442	1.46178
x2 = 0.2496	1.4679	1.46525	1.46266	1.46014	1.45753
x2 = 0.3036	1.46273	1.46014	1.45758	1.45505	1.45243
x2 = 0.3578	1.45755	1.45496	1.45242	1.44988	1.44725
x2 = 0.4021	1.45329	1.45068	1.44815	1.44562	1.44301
x2 = 0.4514	1.4485	1.44593	1.44338	1.44086	1.43827
x2 = 0.4994	1.44384	1.44127	1.43873	1.43623	1.43363
x2 = 0.555	1.43843	1.43587	1.43334	1.43083	1.42824
x2 = 0.6017	1.43384	1.4313	1.42878	1.42629	1.42372
x2 = 0.65	1.42906	1.42655	1.42403	1.42154	1.41898
x2 = 0.6996	1.42417	1.42165	1.41914	1.41673	1.41413
x2 = 0.7493	1.41919	1.4167	1.41421	1.41175	1.40924
x2 = 0.8007	1.4141	1.41161	1.40915	1.40668	1.40412
x2 = 0.8497	1.4092	1.40674	1.40425	1.4018	1.39927
x2 = 0.8992	1.40425	1.4018	1.39931	1.39691	1.39437
x2 = 0.95	1.39913	1.39675	1.39426	1.39185	1.3894

— the NIST ThermoML archive (doi:10.1007/s10765-005-8096-3)
